Data as given in ChEMBL document CHEMBL1122363, “Synthesis and some pharmacological properties of oxytocin and vasopressin analogues with sarcosine or N-methyl-L-alanine in position 7” (1983).
The source made the active and inactive calls. The rule behind the calls is not given here. Positions of bridges follow the written chain, without caps; N, C: chain ends. Non-standard residues stand in square brackets, D forms with d. Residues, ends and D or L forms follow the SMILES beside them. NMeA = CN[C@@H](C)C(=O)O; Mpa = O=C(O)CCS; Sar = CNCC(=O)O

How the values were obtained:
[1] = Tested for the ratio of uterotonic potency to antidiuretic potency(O/A); format: functional, Urine
Rattus norvegicus [2] = organism: Rattus norvegicus; experiment: The compound was tested for milk ejection activity in rat; format: functional; parameters: unit not given here
Rattus norvegicus [3] = organism: Rattus norvegicus; experiment: Tested for antidiuretic activity in rat; format: functional, Urine; parameters: unit not given here
Rattus norvegicus [4] = organism: Rattus norvegicus; experiment: Uterotonic activity in vitro in isolated rat uterus in absence of magnesium; format: functional; parameters: unit not given here
Rattus norvegicus [5] = organism: Rattus norvegicus; experiment: Uterotonic activity in vitro in isolated rat uterus in presence of magnesium; format: functional
Rattus norvegicus [6] = organism: Rattus norvegicus; experiment: Tested for vasopressor activity in rat; format: functional; parameters: unit not given here
Rattus norvegicus [7] = organism: Rattus norvegicus; experiment: Tested for vasopressor activity in rat; N-None; format: functional, organism-based
Rattus norvegicus [8] = organism: Rattus norvegicus; experiment: Tested for vasopressor activity in rat;N-None; format: functional, organism-based
[9] = Tested for the ratio of uterotonic potency to pressor potency(O/P); format: functional
[10] = Tested for the ratio of antidiuretic potency to uterotonic potency(A/P); format: functional
[11] = Tested for the ratio of antidiuretic potency to uterotonic potency(A/O); format: functional, Urine

| Compound | Activity (Rattus norvegicus [2]) | Activity (Rattus norvegicus [3]) | Activity (Rattus norvegicus [4]) | Activity (Rattus norvegicus [5]) [IU/mg] | Activity (Rattus norvegicus [6]) | also measured |
| --- | --- | --- | --- | --- | --- | --- |
| CC[C@H](C)[C@@H]1NC(=O)[C@H](Cc2ccc(O)cc2)NC(=O)[C@@H](N)CSSC[C@@H](C(=O)N(C)[C@@H](C)C(=O)N[C@@H](CC(C)C)C(=O)NCC(N)=O)NC(=O)[C@H](CC(N)=O)NC(=O)[C@H](CCC(N)=O)NC1=O | 402 | 0.12 | 62 | 184 | – | Ratio [1]: 620 |
| CC[C@H](C)[C@@H]1NC(=O)[C@H](Cc2ccc(O)cc2)NC(=O)[C@@H](N)CSSC[C@@H](C(=O)N[C@@H](C)C(=O)N[C@@H](CC(C)C)C(=O)NCC(N)=O)NC(=O)[C@H](CC(N)=O)NC(=O)[C@H](CCC(N)=O)NC1=O | – | 0.08 | 22 | – | 0.4 | Ratio [1]: 275 |
| CC[C@H](C)[C@@H]1NC(=O)[C@H](Cc2ccc(O)cc2)NC(=O)[C@@H](N)CSSC[C@@H](C(=O)NCC(=O)N[C@@H](CC(C)C)C(=O)NCC(N)=O)NC(=O)[C@H](CC(N)=O)NC(=O)[C@H](CCC(N)=O)NC1=O | 392 | 0.0056 | 93 | – | 0.01 | Ratio [1]: 16600 |
| CC[C@H](C)[C@@H]1NC(=O)[C@H](Cc2ccc(O)cc2)NC(=O)CCSSC[C@@H](C(=O)N(C)CC(=O)N[C@@H](CC(C)C)C(=O)NCC(N)=O)NC(=O)[C@H](CC(N)=O)NC(=O)[C@H](CCC(N)=O)NC1=O | 498 | – | 745 | 1350 | – | – |
| CC[C@H](C)[C@@H]1NC(=O)[C@@H](Cc2ccc(O)cc2)NC(=O)CCSSC[C@@H](C(=O)N(C)CC(=O)N[C@@H](CC(C)C)C(=O)NCC(N)=O)NC(=O)[C@H](CC(N)=O)NC(=O)[C@@H](CCC(N)=O)NC1=O | – | – | – | – | – | Activity (Rattus norvegicus [7]): inactive |
| CC[C@H](C)[C@@H]1NC(=O)[C@@H](Cc2ccc(O)cc2)NC(=O)[C@H](N)CSSC[C@@H](C(=O)N(C)[C@@H](C)C(=O)N[C@@H](CC(C)C)C(=O)NCC(N)=O)NC(=O)[C@H](CC(N)=O)NC(=O)[C@@H](CCC(N)=O)NC1=O | – | – | – | – | – | Activity (Rattus norvegicus [8]): inactive |
| CC[C@H](C)[C@@H]1NC(=O)[C@@H](Cc2ccc(O)cc2)NC(=O)[C@H](N)CSSC[C@@H](C(=O)NCC(=O)N[C@@H](CC(C)C)C(=O)NCC(N)=O)NC(=O)[C@H](CC(N)=O)NC(=O)[C@@H](CCC(N)=O)NC1=O | – | – | – | – | – | Ratio [9]: 9300 |
| CC[C@H](C)[C@@H]1NC(=O)[C@@H](Cc2ccc(O)cc2)NC(=O)[C@H](N)CSSC[C@@H](C(=O)N[C@@H](C)C(=O)N[C@@H](CC(C)C)C(=O)NCC(N)=O)NC(=O)[C@H](CC(N)=O)NC(=O)[C@@H](CCC(N)=O)NC1=O | – | – | – | – | – | Ratio [9]: 55 |
| CC[C@H](C)[C@@H]1NC(=O)[C@H](Cc2ccc(O)cc2)NC(=O)CCSSC[C@H](C(=O)N2CCC[C@H]2C(=O)N[C@@H](CC(C)C)C(=O)NCC(N)=O)NC(=O)[C@H](CC(N)=O)NC(=O)[C@H](CCC(N)=O)NC1=O | – | – | – | – | – | Ratio [9]: 120 |
| NC(=O)CC[C@@H]1NC(=O)[C@H](Cc2ccccc2)NC(=O)[C@H](Cc2ccc(O)cc2)NC(=O)[C@@H](N)CSSC[C@@H](C(=O)NCC(=O)N[C@@H](CCCN=C(N)N)C(=O)NCC(N)=O)NC(=O)[C@H](CC(N)=O)NC1=O (H-CYFQNCGRG-NH2; disulfide 1-6) | 0.1 | – | – | 0.01 | – | – |
| C[C@@H](C(=O)N[C@@H](CCCN=C(N)N)C(=O)NCC(N)=O)N(C)C(=O)[C@@H]1CSSC[C@H](N)C(=O)N[C@@H](Cc2ccc(O)cc2)C(=O)N[C@@H](Cc2ccccc2)C(=O)N[C@@H](CCC(N)=O)C(=O)N[C@@H](CC(N)=O)C(=O)N1 (H-CYFQNC[NMeA]RG-NH2; disulfide 1-6) | 2.8 | 35 | 343 | 10.6 | 4.1 | Ratio [10]: 32; Ratio [11]: 122 |
| CN(CC(=O)N[C@@H](CCCN=C(N)N)C(=O)NCC(N)=O)C(=O)[C@@H]1CSSC[C@H](N)C(=O)N[C@@H](Cc2ccc(O)cc2)C(=O)N[C@@H](Cc2ccccc2)C(=O)N[C@@H](CCC(N)=O)C(=O)N[C@@H](CC(N)=O)C(=O)N1 (H-CYFQNC[Sar]RG-NH2; disulfide 1-6) | 9.3 | 110 | 188 | 3.6 | 36 | Ratio [10]: 52; Ratio [11]: 20 |
| CC[C@H](C)[C@@H]1NC(=O)[C@H](Cc2ccc(O)cc2)NC(=O)[C@@H](N)CSSC[C@@H](C(=O)N(C)CC(=O)N[C@@H](CC(C)C)C(=O)NCC(N)=O)NC(=O)[C@H](CC(N)=O)NC(=O)[C@H](CCC(N)=O)NC1=O (H-CYIQNC[Sar]LG-NH2; disulfide 1-6) | 564 | 0.18 | 459 | 609 | – | Ratio [1]: 2550 |
| C[C@@H](C(=O)N[C@@H](CCCN=C(N)N)C(=O)NCC(N)=O)N(C)C(=O)[C@@H]1CSSCCC(=O)N[C@@H](Cc2ccc(O)cc2)C(=O)N[C@@H](Cc2ccccc2)C(=O)N[C@@H](CCC(N)=O)C(=O)N[C@@H](CC(N)=O)C(=O)N1 ([Mpa]YFQNC[NMeA]RG-NH2; disulfide 1-6) | 1.7 | 35 | 113 | 1.3 | 8 | Ratio [10]: 102; Ratio [11]: 78 |
| CN(CC(=O)N[C@@H](CCCN=C(N)N)C(=O)NCC(N)=O)C(=O)[C@@H]1CSSCCC(=O)N[C@@H](Cc2ccc(O)cc2)C(=O)N[C@@H](Cc2ccccc2)C(=O)N[C@@H](CCC(N)=O)C(=O)N[C@@H](CC(N)=O)C(=O)N1 ([Mpa]YFQNC[Sar]RG-NH2; disulfide 1-6) | 38.2 | 193 | 580 | 0.84 | 49 | Ratio [10]: 690; Ratio [11]: 15 |
| CC[C@H](C)[C@@H]1NC(=O)[C@H](Cc2ccc(O)cc2)NC(=O)CCSSC[C@@H](C(=O)N(C)[C@@H](C)C(=O)N[C@@H](CC(C)C)C(=O)NCC(N)=O)NC(=O)[C@H](CC(N)=O)NC(=O)[C@H](CCC(N)=O)NC1=O ([Mpa]YIQNC[NMeA]LG-NH2; disulfide 1-6) | 157 | – | 98 | 274 | – | – |
| CC[C@H](C)[C@@H]1NC(=O)[C@H](Cc2ccc(O)cc2)NC(=O)CCSSC[C@@H](C(=O)N2CCC[C@H]2C(=O)N[C@@H](CC(C)C)C(=O)NCC(N)=O)NC(=O)[C@H](CC(N)=O)NC(=O)[C@H](CCC(N)=O)NC1=O [DEMOXYTOCIN] | – | – | – | – | – | Ratio [1]: 130 |
| N=C(N)NCCC[C@H](NC(=O)[C@@H]1CCCN1C(=O)[C@@H]1CSSCCC(=O)N[C@@H](Cc2ccc(O)cc2)C(=O)N[C@@H](Cc2ccccc2)C(=O)N[C@@H](CCC(N)=O)C(=O)N[C@@H](CC(N)=O)C(=O)N1)C(=O)NCC(N)=O [DESMOPRESSIN] | – | – | – | 346 | – | Ratio [10]: 5; Ratio [11]: 60 |
| CC[C@H](C)[C@@H]1NC(=O)[C@H](Cc2ccc(O)cc2)NC(=O)[C@@H](N)CSSC[C@@H](C(=O)N2CCC[C@H]2C(=O)N[C@@H](CC(C)C)C(=O)NCC(N)=O)NC(=O)[C@H](CC(N)=O)NC(=O)[C@H](CCC(N)=O)NC1=O [OXYTOCIN] | – | – | – | 486 | – | Ratio [9]: 120 |
